Reference: PMC12040169 (PLOS Biology, 2025)

assay: in vitro; settings: human, hela cells, % viability

Structure (SMILES) | viability at 28.5 h, 10 µM
O=[N+]([O-])c1cc2c(cc1C1NN=C(c3ccccc3)S1)OCO2 (stereo not drawn) [CBK262540] | 112%
O=C(NCc1c(OC(=O)c2cccc([N+](=O)[O-])c2)ccc2ccccc12)c1ccccc1 [CBK260919] | 81.1%
O=C(Nc1ccccc1C(=O)O)c1cccc(-n2cnnc2)c1 [CBK269769] | 85.4%
COC(=O)C1CC2CCC1(C)CC21NC(=O)c2ccccc2N1 (stereo not drawn) [CBK284440] | 100%
Cc1c(C(=O)CCN(C)C2CC=C(c3ccc(F)cc3)CC2)cnn1CCO (stereo not drawn) [CBK023799] | 90.4%
C=CCn1c(Cc2csc(NC(=O)c3ccc([N+](=O)[O-])cc3Cl)n2)n[nH]c1=S [CBK295291] | 76.1%
COc1ccc(C[C@@H]2NC(=O)[C@@H]3CN(C(=O)c4ccc(OC)cc4)CCN3C2=O)cc1 [CBK289598] | 94.1%
O=C(CC1CC1)N1CCC2(CCN(Cc3ccccc3)C2)C1 (stereo not drawn) [CBK136825] | 93.9%
Cc1ccc(C2CCCN2C(=O)C(C)Cn2cncn2)cc1C (stereo not drawn) [CBK282213] | 98.9%
Cc1nc2c(Oc3ncccn3)cccn2c1N(C)C(=O)C1CCCCC1 [CBK147161] | 99.1%
CSc1ncc(CNC(=O)C2CCOc3ccccc3C2)n1C (stereo not drawn) [CBK307611] | 82.5%
Cc1ccc(-n2ncc3c(=O)n(CC(=O)NC4CCCCC4)cnc32)cc1 [CBK287536] | 78.1%
O=C(Cn1c(-c2ccc(F)cc2)cc2cccnc21)N1CCCC1 [CBK285384] | 102%
OC(COc1cccc2c1CCCC2)CN1CCC(O)(c2ccc(Br)cc2)CC1 (stereo not drawn) [CBK003584] | 72%
O=C(c1ccco1)N1C2CCC1CC(O)(c1cccnc1F)C2 (stereo not drawn) [CBK284417] | 98.6%
Cc1ccc(OCC(=O)NCC(c2cccs2)N2CCOCC2)cc1C (stereo not drawn) [CBK306143] | 93.3%
Cn1nccc1NC(=O)Nc1ccc(CN2CCOC2=O)cc1 [CBK306279] | 88%
COc1ccc(Cn2c(=O)n(C(=O)c3cccc(S(C)(=O)=O)c3)c3ccccc32)cc1 [CBK106547] | 86.5%
C=C(C)C(=O)OCCOC(=O)c1cc(N)cc(N)c1 [CBK261389] | 101%
CN1CCN(C(=O)CNS(=O)(=O)c2ccc3ccccc3c2)CC1 [CBK042205] | 99.3%
COc1cccc(N2C(=O)CC(N3CCN(Cc4ccc5c(c4)OCO5)CC3)C2=O)c1 (stereo not drawn) [CBK074411] | 93.1%
Cc1nc(SCCC(=O)Nc2ccccc2C#N)nc2cc3c(cc12)CCC3 [CBK268812] | 90.2%

Structure (SMILES) | viability at 28.5 h, 10 µM
O=C1COc2ccccc2C/C=C/CC2(CCN(C(=O)c3cncc(O)c3)CC2)C(=O)NCCN1 [CBK291989] | 98.3%
O=C(NCCN1CCCC1)c1ccc(N2CCN(C(=O)c3ccccc3C(F)(F)F)CC2)nn1 [CBK153217] | 105%
O=C(CC1CCCC1)N1CCC(c2nnc(-c3ccsc3)o2)CC1 [CBK283381] | 106%
CC(C)(C)C(=O)NC(=S)NNC(=O)c1ccncc1 [CBK269304] | 90.6%
O=C(c1ccc(-c2nccnc2NCc2ccc(C(F)(F)F)cc2)cc1)N1CCOCC1 [CBK036931] | 100%
OCc1ccccc1-c1nccnc1NCc1ccco1 [CBK037098] | 94.5%
Cc1nccn1CCNC(=O)c1cc(C2CCCCC2)no1 [CBK283295] | 89.6%
CN(C1=NS(=O)(=O)c2ccccc21)c1ccccc1C(=O)O [CBK287094] | 90%
CNCC(=O)N1CCC2(CCCC[C@H]3CN(C(C)=O)CC[C@H]3NC(=O)CNC2=O)CC1 [CBK292181] | 79.3%
O=C(Nc1ccccc1)NC(N1CCOCC1)C(Cl)(Cl)Cl (stereo not drawn) [CBK261293] | 103%
COC(=O)c1cccc(OCC(O)Cn2nc(C)c(C)c(C#N)c2=O)c1 (stereo not drawn) [CBK305563] | 85.3%
COc1cccc(-c2ccc(C(=O)Nc3ccc4c(c3)OCO4)c(N3CCOCC3)n2)c1 [CBK076509] | 93.5%
COc1ccc2[nH]c3c(c2c1)CCN(C=O)C31CCCN(CCC#N)C1 (stereo not drawn) [CBK039445] | 107%
CCc1cc(=O)[nH]c(-c2ccc(N(C)CC(C)O)nc2)n1 (stereo not drawn) [CBK306484] | 88.4%
COc1ccc(Br)cc1C(=O)NC(=S)Nc1cc(Cl)c(O)c(Cl)c1 [CBK265979] | 89.6%
Cc1nnc(NS(=O)(=O)c2ccc(Br)cc2)s1 [CBK068266] | 101%
Cc1nccn1CCNC(=O)c1c2c(nn1C)CCCC2 [CBK281857] | 100%
COc1cc(OC)nc(CN2C(=O)C3(CC(=O)N(C)C3=O)c3cc(F)ccc32)n1 (stereo not drawn) [CBK075475] | 110%
COc1ccc(Nc2nc(Cl)nc(NCCN3CCOCC3)n2)cc1 [CBK027610] | 104%
Nc1nc(OCc2ccc3c(c2)OCO3)cnc1/C=C/c1ccccc1 [CBK145123] | 92.7%
O=S(=O)(c1ccc2nc(-c3ccccc3)c(-c3ccc(O)cc3)nc2c1)c1ccc2nc(-c3ccccc3)c(-c3ccc(O)cc3)nc2c1 [CBK261148] | 108%
CS(=O)(=O)N1CC2(CCN(C(=O)[C@@H]3CNC[C@H]3c3ccccc3)CC2)c2ccccc21 [CBK022572] | 104%

Structure (SMILES) | viability at 28.5 h, 10 µM
O=C1N[C@H]2CCCN(C(=O)c3cncs3)[C@H]2CCCCCOc2ccccc21 [CBK292106] | 98.2%
CN(CCCCCC(=O)/C=N/O)Cc1ccccc1 [CBK288499] | 91.7%
Cc1nc2c(c(=O)[nH]1)CC[C@@H]1CN(C(=O)C3CCCCC3)C[C@H]21 [CBK284407] | 102%
CCOc1ccc(NC(=O)C(C)O)c(NS(=O)(=O)c2ccc3ccccc3c2)c1 (stereo not drawn) [CBK268309] | 87.6%
NC1=C(c2ccccc2)C(=O)CN1NC(=O)COc1ccccc1-c1ccccc1 [CBK269258] | 95.1%
c1ccc(CCN2CCC(n3cnc4cccnc43)CC2)cc1 [CBK283581] | 88.5%
COc1cc(F)ccc1-c1nc(N)cc2cccnc12 [CBK081176] | 88.9%
CC(=O)Nc1ccc(-c2cccc(COC3CCN(C(=O)Cc4c[nH]cn4)CC3)c2)cc1 [CBK149497] | 103%
CCOc1ccc(C(=O)NC(=S)Nc2cccc(C(=O)O)c2C)cc1Br [CBK265100] | 93.6%
O=C(Cn1cnnn1)NCc1ccccc1 [CBK200255] | 83.6%
O=C(Cn1nnc2ccccc2c1=O)NC1CCN2CCCCC12 (stereo not drawn) [CBK305589] | 105%
O=C(c1cnccn1)N1C[C@@H]2OCC(=O)N(CC3CC3)[C@@H]2C1 [CBK289681] | 91.3%
CC(C)c1ccc(SCCc2ccccn2)cc1 [CBK026575C] | 88.8%
O=C(CN1CCC2(CC1)CN(C(=O)CO)c1ccccc12)c1ccsc1 [CBK144605T] | 86.8%
CC(NC(=O)N1CCCC(CO)C1)c1ccccc1 (stereo not drawn) [CBK156066] | 87.1%
COc1ccc(Br)cc1S(=O)(=O)Nc1nc(C)c(C(=O)O)s1 [CBK045558] | 106%
NCCNc1ccc([N+](=O)[O-])c(NCc2ccccc2)c1 [CBK262757C] | 83.7%
Cc1nc2cc(C(=O)NC(C)c3ccccn3)ccc2n1C (stereo not drawn) [CBK281822] | 84.2%
CN1CCC2CN(CCCC(c3ccc(F)cc3)c3ccc(F)cc3)CCN2C1=O (stereo not drawn) [CBK024865C] | 89.9%
CC(C)[C@@H](CO)n1c(=O)[nH]c2ncc(-c3cccc(/C=C/C(=O)O)c3)nc21 [CBK065043] | 88.6%
Cc1cc(COc2nccnc2OC2CCN(CC(=O)Nc3c(C)cccc3C)CC2)no1 [CBK082958T] | 103%
CC(=O)c1c(-c2ccc(C)cc2)nc2n(CCN3CCCCC3)c3ccccc3n12 [CBK278231C] | 101%

Structure (SMILES) | viability at 28.5 h, 10 µM
COc1ccc(NC(=O)CCN2C(=O)c3ccccc3S2(=O)=O)cc1 [CBK265863] | 87.1%
CNc1c(C)cc([N+](C)(C)C)cc1C [CBK261007I] | 95.3%
CCOc1cc(OCC)cc(C(=O)N2CCC3(CC2)CC(=O)c2c(OC)cccc2O3)c1 [CBK168012] | 108%
CC(=O)NCC1CCCN(Cc2c[nH]nc2-c2c(F)cccc2F)C1 (stereo not drawn) [CBK306382] | 99.6%
CCc1cnc(CN(C)C2CCN(CC(=O)NCc3ccco3)C2)o1 (stereo not drawn) [CBK306137] | 94.8%
COCCNC(=O)c1ccc(-c2ccc3c(c2)OCO3)nc1N(C)C [CBK106050] | 101%
O=c1c2cn[nH]c2nc(SCc2ccc3c(c2)OCCO3)n1-c1ccccc1 [CBK266593] | 91.8%
CC(C)c1ccc(C(=O)NC2CCN(CC(F)(F)F)C2=O)nc1 (stereo not drawn) [CBK304089] | 108%
O=C(O)c1cccc(Sc2nc3cc(Cl)c(Cl)cc3nc2N2CCCC2)c1 [CBK093588] | 118%
Cn1ccc(CN2CCOC(c3nc(C(C)(C)C)n[nH]3)C2)cc1=O (stereo not drawn) [CBK304495] | 84.5%
CC(=O)Nc1ccc(S(=O)(=O)N2CCN(S(=O)(=O)N3CCCCCC3)CC2)cc1 [CBK268983] | 99.3%
CC(C)c1cc(C(=O)N(C)Cc2cccc3ncccc23)n(C)n1 [CBK282567] | 86.4%
Cc1ccccc1CCNC(=O)c1cccn(CC(=O)N(C)C2CCCCC2)c1=O [CBK286028] | 122%
Cn1cccc1CNCc1ccccn1 [CBK269818C] | 96%
COc1cccc(OCc2cnc(-c3ccc(Cl)cc3)c(-c3cccc(CNC(C)=O)c3)c2)c1 [CBK165225] | 90.5%
CC1(COC(=O)N2CCC(OCc3cnc(-c4ccc(S(C)(=O)=O)cc4)cn3)CC2)COC1 [CBK172009] | 86.7%
COc1ccc2nc(-c3cccc(NC(=O)c4ccc(F)cc4)c3)cn2n1 [CBK287826] | 104%
C#CCNC(=O)N1CCC(c2c[nH]c3ccccc23)CC1 [CBK305034] | 87.4%
Cn1ncc2c(=O)n(Cc3nc(C(C)(C)C)no3)cnc21 [CBK304906] | 87.9%
CC(=O)NC(c1nccs1)C1CCN(C(=O)C(C)(C)C)CC1 (stereo not drawn) [CBK284677] | 88.9%
COc1cc(C(=O)Nc2ccc(N3CCN(C)CC3)cc2)ccc1OCc1ccc(Cl)cc1 [CBK266116] | 99%
